Laboratory results from patent US20130005760A1, “HETEROCYCLIC COMPOUND HAVING AZOLE GROUP” (Toyama Chemical Co., Ltd., priority 2010, published 2013).

Experiments:
HIV-1 (JRCSF) [1] = assay: Anti-HIV activity (Test Example 1-1): MaRBLE cells infected with HIV-1 (JRCSF), compound added 2 h after seeding, luciferase readout after 7 days; assay type: cell-based; conditions: Human immunodeficiency virus 1, 168 h, 7 days culture, firefly luciferase, virus growth rate, 4 parameter Logistic Model (XLfit 4)
Procedure: (§1) This example was carried out by reference to Journal of Clinical Microbiology, 2007, Vol. 45, pages 477 to 487.
(§2) An anti-HIV activity was evaluated using MaRBLE cells obtained by transfection of HPB-M(a) derived from human T-lymphocytes with a luciferase gene of which expressions were regulated by HIV-1 LTR and a CCR5 gene etc.
The MaRBLE cells were suspended in RPMI1640 containing 10% FCS (fetal calf serum) and penicillin/streptomycin. After infected with HIV-1 (JRCSF), the cells were seeded on a 96-well plate (1×10^5 cells/well). As a control group, the same number of uninfected cells were seeded.
After incubating the plate under the condition of 37° C. and 5% CO2 for 2 hours, a fresh culture medium or a culture medium containing an appropriately diluted test compound was added to each well.
After further culturing at 37° C. under 5% CO2 for 7 days, an intracellular luciferase activity was measured using Dual-Glo Luciferase assay system (Promega).
(§3) The virus growth rate was calculated by the following equation.
(§4) Virus growth rate (%)=(A/B)×100
(§5) A=(Firefly luciferase activity in the well with the compound)−(Firefly luciferase activity of uninfected cells)
(§6) B=(Firefly luciferase activity in the well without the compound)−(Firefly luciferase activity of uninfected cells)
The IC50 of the compound was calculated by applying virus growth rates of various concentrations to 4 parameter Logistic Model of curve-fitting software XLfit 4.

HIV-1 (JRCSF) [2] = assay: Anti-HIV activity (Test Example 1-2): infected MaRBLE cells seeded on plate containing drug solution, luciferase readout after 7 days; assay type: cell-based; conditions: Human immunodeficiency virus 1, 168 h, MaRBLE cells infected with HIV-1 (JRCSF), 7 days culture, firefly luciferase, FORECAST linear regression (Excel)
Procedure: as §1, §2
A plate containing a drug solution was made by dispensing a fresh culture medium or an appropriately diluted test compound to a 96-well plate.
MaRBLE cells were suspended in RPMI1640 containing 10% FCS (fetal calf serum) and penicillin/streptomycin. After infected with HIV-1 (JRCSF), the cells were seeded on the above-described plate containing a drug solution ([…] cells/well). As a control group, the same number of uninfected cells were seeded.
After culturing at 37° C. under 5% CO2 for 7 days, an intracellular luciferase activity was measured using Dual-Glo Luciferase assay system (Promega).
as §3, §4, §5, §6
The IC50 of the compound was calculated by plotting the concentration with the logarithm and by plotting the virus growth rate with a real number, using the FORECAST function (linear regression technique) of Microsoft Office Excel 2003.

[3] = Pharmacokinetic study in mice (oral administration); assay type: in vivo; conditions: mouse, serum, 25 mg/kg, male ICR mice, suspension in 0.5% methylcellulose 2.5 mg/mL at 10 mL/kg, 12 hours after administration, HPLC, read-out: serum concentration of the test compound
Procedure: The compounds of Examples 2, 4, 5, 12 and 16 were used as test compounds.
A test compound suspended in 0.5% methylcellulose (2.5 mg/mL) was orally administered at 10 mL/kg to male ICR mice (6 week-old, three animals in a group). At 12 hours after the administration, the blood of the mice was collected, and the concentrations of the test compound in the serum were measured by HPLC.

[4] = tested on: bone marrow polychromatic erythrocytes; assay: In vivo micronucleus study in mice; conditions: male ICR mice, oral twice at 24 hour interval, bone marrow 24 hours after final administration, highest dose group with all animals alive
Procedure: (§7) The compounds of Examples 2, 4 and 12 were used as test compounds.
A test compound suspended in 0.5% methylcellulose was orally administered to male ICR mice (8 week-old, three animals in a group) twice at a 24 hour interval. To a control group, 0.5% methylcellulose was orally administered in a similar manner.
At 24 hours after the final administration, the mice in the highest dose group in which all the animals were alive were killed by exsanguination under ether anesthesia, and one thigh bone was collected from each animal. After cutting the collected thigh bone at the proximal end, bone marrow cells were washed out with fetal calf serum to a centrifuge tube using a disposable syringe, and after centrifugation (1000 rpm, 5 minutes, HITACHI 05PR-22), a part of the supernatant was discarded to obtain a suspension of bone marrow cells. This suspension was smeared on a slide glass, and then dried followed by methanol fixation to prepare a sample.
The sample was observed by acridine orange staining.
The sample of which frequency of MNPCE exceeds 0.5% was judged positive.
Frequency of MNPCE (%)=(MNPCE number/Observed PCE number)×100

[5] = Single-dose oral toxicity study in mice; assay type: in vivo; conditions: male ICR mice, suspension in 0.5% methylcellulose, conditions observed on the next day
Procedure: as §7
10 mL/kg of a test compound suspended in 0.5% methylcellulose was orally administered to male ICR mice (6 week-old, one animal in a group).
On the next day after the administration, the conditions of the mice were observed.

## Cc1noc(C)c1-c1ccc2c(=O)cc(CN)n(-c3ccc(F)cc3F)c2n1 [Example 27, 2-(aminomethyl)-1-(2,4-difluorophenyl)-7-(3,5-dimethylisoxazol-4-yl)-1,4-dihydro-4-oxo-1,8-naphthyridine]
HIV-1 (JRCSF) [1]
  IC50: 0.3 nM

## Cc1noc(C)c1-c1ccc2c(=O)cc(CO)n(Cc3ccccc3N)c2c1 [Example 7, 1-(2-aminobenzyl)-7-(3,5-dimethylisoxazol-4-yl)-2-hydroxymethyl-1,4-dihydro-4-oxoquinoline]
HIV-1 (JRCSF) [1]
  IC50: 0.2 nM

## Cc1noc(C)c1-c1ccc2c(=O)cc(CO)n(-c3cc(N)c(F)cc3F)c2c1 [Example 19, 1-(5-amino-2,4-difluorophenyl)-7-(3,5-dimethylisoxazol-4-yl)-2-(hydroxymethyl)-1,4-dihydro-4-oxoquinoline]
HIV-1 (JRCSF) [1]
  IC50: 1.7 nM

## Cc1noc(C)c1-c1ccc2c(=O)cc(C)n(-c3cc(N)c(Cl)cc3F)c2n1 [Example 34, 1-(5-amino-4-chloro-2-fluorophenyl)-7-(3,5-dimethylisoxazol-4-yl)-2-methyl-1,4-dihydro-4-oxo-1,8-naphthyridine]
HIV-1 (JRCSF) [1]
  IC50: 0.48 nM

## Cc1noc(C)c1-c1ccc2c(=O)cc(C)n(Cc3ccc(Cl)c(F)c3N)c2c1 [Example 35, 1-(2-amino-4-chloro-3-fluorobenzyl)-7-(3,5-dimethylisoxazol-4-yl)-2-methyl-1,4-dihydro-4-oxoquinoline]
HIV-1 (JRCSF) [2]
  IC50: 2.6 nM

## Cc1noc(C)c1-c1ccc2c(=O)cc(C)n(-c3ccc(F)cc3F)c2n1 [Example 25, 1-(2,4-difluorophenyl)-7-(3,5-dimethylisoxazol-4-yl)-2-methyl-1,4-dihydro-4-oxo-1,8-naphthyridine]
HIV-1 (JRCSF) [1]
  IC50: 0.64 nM

## CCc1cc(=O)c2ccc(-c3c(C)noc3C)cc2n1-c1cc(N)c(F)cc1F [Example 16, 1-(5-amino-2,4-difluorophenyl)-7-(3,5-dimethylisoxazol-4-yl)-2-ethyl-1,4-dihydro-4-oxoquinoline]
[3]
  concentration at 12 h: ≥ 500 ng/mL
HIV-1 (JRCSF) [1]
  IC50: 7.2 nM

## Cc1noc(C)c1-c1ccc2c(=O)cc(C)n(Cc3cc(F)cc(F)c3N)c2c1 [Example 14, 1-(2-amino-3,5-difluorobenzyl)-7-(3,5-dimethylisoxazol-4-yl)-2-methyl-1,4-dihydro-4-oxoquinoline]
HIV-1 (JRCSF) [2]
  IC50: 0.55 nM

## Cc1noc(C)c1-c1ccc2c(=O)cc(C)n(Cc3cccnc3N)c2c1 [Example 18, 1-((2-aminopyridin-3-yl)methyl)-7-(3,5-dimethylisoxazol-4-yl)-2-methyl-1,4-dihydro-4-oxoquinoline]
HIV-1 (JRCSF) [1]
  IC50: 3.5 nM

## Cc1noc(C)c1-c1ccc2c(=O)cc(N)n(-c3ccc(F)cc3F)c2c1 [Example 10, 2-amino-1-(2,4-difluorophenyl)-7-(3,5-dimethylisoxazol-4-yl)-1,4-dihydro-4-oxoquinoline]
HIV-1 (JRCSF) [1]
  IC50: 2.8 nM

## Cc1noc(C)c1-c1ccc2c(=O)cc(CO)n(-c3ccc(F)cc3F)c2n1 [Example 26, 1-(2,4-difluorophenyl)-7-(3,5-dimethylisoxazol-4-yl)-2-hydroxymethyl-1,4-dihydro-4-oxo-1,8-naphthyridine]
HIV-1 (JRCSF) [1]
  IC50: 0.23 nM

## Cc1noc(C)c1-c1ccc2c(=O)cc(C)n(Cc3ccccc3N)c2n1 [Example 29, 1-(2-aminobenzyl)-7-(3,5-dimethylisoxazol-4-yl)-2-methyl-1,4-dihydro-4-oxo-1,8-naphthyridine]
HIV-1 (JRCSF) [1]
  IC50: 1.2 nM

## Cc1noc(C)c1-c1ccc2c(=O)cc(C)n(-c3cc(N)c(F)cc3F)c2c1 [Example 2, 1-(5-amino-2,4-difluorophenyl)-7-(3,5-dimethylisoxazol-4-yl)-2-methyl-1,4-dihydro-4-oxoquinoline]
[4]
  micronucleus test result (frequency of MNPCE exceeding 0.5% judged positive): negative
[5]
  dose at which the compound showed good safety (single oral dose): 2000 mg/kg
[3]
  concentration at 12 h: ≥ 500 ng/mL
HIV-1 (JRCSF) [1]
  IC50: 1.4 nM

## Cc1noc(C)c1-c1ccc2c(=O)cc(C)n(-c3cc(N)c(F)cc3F)c2n1 [Example 4, 1-(5-amino-2,4-difluorophenyl)-7-(3,5-dimethylisoxazol-4-yl)-2-methyl-1,4-dihydro-4-oxo-1,8-naphthyridine]
[4]
  micronucleus test result (frequency of MNPCE exceeding 0.5% judged positive): negative
[5]
  dose at which the compound showed good safety (single oral dose): 750 mg/kg
[3]
  concentration at 12 h: ≥ 500 ng/mL
HIV-1 (JRCSF) [1]
  IC50: 0.38 nM

## Cc1noc(C)c1-c1ccc2c(=O)cc(CO)n(-c3cc(N)c(F)cc3F)c2n1 [Example 24, 1-(5-amino-2,4-difluorophenyl)-7-(3,5-dimethylisoxazol-4-yl)-2-hydroxymethyl-1,4-dihydro-4-oxo-1,8-naphthyridine]
HIV-1 (JRCSF) [1]
  IC50: 0.54 nM

## Cc1noc(C)c1-c1ccc2c(=O)cc(C)n(Cc3ccccc3N)c2c1 [Example 5-2, 1-(2-aminobenzyl)-7-(3,5-dimethylisoxazol-4-yl)-2-methyl-1,4-dihydro-4-oxoquinoline.½ pinacol adduct]
HIV-1 (JRCSF) [1]
  IC50: 0.27 nM

## Cc1noc(C)c1-c1ccc2c(=O)cc(C)n(Cc3ccccc3N)c2c1 [Example 5, 1-(2-aminobenzyl)-7-(3,5-dimethylisoxazol-4-yl)-2-methyl-1,4-dihydro-4-oxoquinoline]
[3]
  concentration at 12 h: ≥ 500 ng/mL

## CCc1cc(=O)c2ccc(-c3c(C)noc3C)cc2n1Cc1cccc(F)c1N [Example 17, 1-(2-amino-3-fluorobenzyl)-7-(3,5-dimethylisoxazol-4-yl)-2-ethyl-1,4-dihydro-4-oxoquinoline]
HIV-1 (JRCSF) [1]
  IC50: 0.26 nM

## Cc1noc(C)c1-c1ccc2c(=O)cc(N)n(-c3cc(N)c(F)cc3F)c2c1 [Example 20, 2-amino-1-(5-amino-2,4-difluorophenyl)-7-(3,5-dimethylisoxazol-4-yl)-1,4-dihydro-4-oxoquinoline]
HIV-1 (JRCSF) [1]
  IC50: 2.6 nM

## Cc1noc(C)c1-c1ccc2c(=O)cc(C)n(-c3cc(N)c(S(C)(=O)=O)cc3F)c2c1 [Example 31, 1-(5-amino-2-fluoro-4-(methylsulfonyl)phenyl)-7-(3,5-dimethylisoxazol-4-yl)-2-methyl-1,4-dihydro-4-oxoquinoline]
HIV-1 (JRCSF) [1]
  IC50: 1.8 nM

## Cc1noc(C)c1-c1ccc2c(=O)cc(N)n(-c3ccc(F)cc3F)c2n1 [Example 28, 2-amino-1-(2,4-difluorophenyl)-7-(3,5-dimethylisoxazol-4-yl)-1,4-dihydro-4-oxo-1,8-naphthyridine]
HIV-1 (JRCSF) [1]
  IC50: 0.3 nM

## Cc1noc(C)c1-c1ccc2c(=O)cc(CO)n(-c3ccc(F)cc3F)c2c1 [Example 22, 1-(2,4-difluorophenyl)-7-(3,5-dimethylisoxazol-4-yl)-2-hydroxymethyl-1,4-dihydro-4-oxoquinoline]
HIV-1 (JRCSF) [1]
  IC50: 0.6 nM

## Cc1noc(C)c1-c1ccc2c(=O)cc(C)n(-c3cc(N)c(S(C)(=O)=O)cc3F)c2n1 [Example 33, 1-(5-amino-2-fluoro-4-(methylsulfonyl)phenyl)-7-(3,5-dimethylisoxazol-4-yl)-2-methyl-1,4-dihydro-4-oxo-1,8-naphthyridine]
HIV-1 (JRCSF) [2]
  IC50: 0.87 nM

## Cc1noc(C)c1-c1cc2c(cc1F)c(=O)cc(C)n2Cc1ccccc1N [Example 13, 1-(2-aminobenzyl)-7-(3,5-dimethylisoxazol-4-yl)-6-fluoro-2-methyl-1,4-dihydro-4-oxoquinoline]
HIV-1 (JRCSF) [2]
  IC50: 2.9 nM

## Cc1noc(C)c1-c1ccc2c(=O)cc(C)n(Cc3cccc(F)c3N)c2c1 [Example 11, 1-(2-amino-3-fluorobenzyl)-7-(3,5-dimethylisoxazol-4-yl)-2-methyl-1,4-dihydro-4-oxoquinoline]
HIV-1 (JRCSF) [1]
  IC50: 0.62 nM
